According to patent US20220249462A1, “COMPOSITIONS AND METHODS USING TRIGONELLINE TO PRODUCE INTRACELLULAR NAD+” (SOCIETE DES PRODUITS NESTLE S.A., priority 2019, published 2022):

Experiments:
[1] = test system: C. elegans; settings: 1 mM trigonelline chloride, day 8 old worms
Description: Absolute quantification of the mtDNA copy number in wild type N2 worms was performed by real-time PCR. Relative values for nduo-1, and act-1 were compared within each sample to generate a ratio representing the relative level of mitochondrial DNA per nuclear genome. The average of at least two technical repeats was used for each biological data point. Each experiment was performed on at least ten independent biological samples (individual worms). Trigonelline treatment with 1 mM trigonelline chloride and experimental measurements were started at Day 1 of wild type N2 worm adulthood, in a regimen of chronic exposure till experiments termination.

[2] = test system: RW1596 (myo-3p::GFP) worms; settings: 1 mM trigonelline chloride, 11 day old worms
Description: RW1596 (myo-3p::GFP) worms were collected at Day 1 (young adults) and at Day 11 (aged animals) for muscle integrity assessment. Worms were immobilized with tetramisole and analyzed by confocal microscopy, to assess the muscle fibers morphology shown by GFP fluorescence imaging. Trigonelline treatment with 1 mM trigonelline chloride and experimental measurements were started at Day 1 of wild type N2 worm adulthood, in a regimen of chronic exposure till experiments termination.

[3] = test system: Human Skeletal Muscle Myotubes (HSMM); settings: 6 h
Description: Human primary myoblasts from two different donors were seeded in 6 well plates at a density of 200′000 cells per well in skeletal muscle growth medium (SKM-M, AMSbio). After one day, the differentiation was induced by a medium change for 4 days using differentiation culture medium (Gibco No. 31330-028). Cells were treated with isotopically labelled trigonelline (13C carbonyl; 32H on methyl) for 6 h.
Cell extracts were separated on a Vanquish UHPLC+focused LC system (Thermo Scientific) with a hydrophilic liquid chromatography (HILIC) iHILIC-Fusion(P) column (Hilicon) carrying the dimensions 150×2.1 mm, 5 μm and a guard column (iHILIC-fusion(P), Hilicon) in front. The separation of metabolites was achieved by applying a linear solvent gradient in normal phase at 0.25 mL/min flow rate and 35° C. of temperature. As mobile phase, solvent A was water with 10 mM ammonium acetate and 0.04% (v/v) ammonium hydroxide, pH ˜9.3, and solvent B was acetonitrile.
The eluting metabolites were analyzed with an Orbitrap Fusion Lumos mass spectrometer (Thermo Scientific) with a heated electrospray ionization (H-ESI) source in positive and negative mode at a resolution of 60,000 at m/z of 200. Instrument control and data analysis were conducted using Xcalibur (Thermo Scientific).

[4] = test system: Human Skeletal Muscle Myotubes (HSMM); assay: Colorimetric NAD+ quantification in human primary myoblasts differentiated to myotubes, 16 h treatment; format: cell-based; settings: different doses
Description: After one day, the differentiation is induced by a medium change for 4 days. Cells were treated with synthetic trigonelline monohydrate (FIG. 4A) or with Fenugreek seed extract enriched in trigonelline containing 40.45% trigonelline (FIG. 4B) for 16 h at difference doses. NAD+ was measured using colorimetric NAD+ quantification assay (Biovision NAD+/NADH Quantitation Colorimetric Kit #k337-100).

[5] = test system: C57BL/6JRj male mice; assay: Liver NAD+ in mice after oral gavage; format: in vivo; settings: equimolar of 300 mg/kg trigonelline, 120 minutes
Description: 10 weeks C57BL/6JRj male mice received trigonelline (sigma #T5509) or fenugreek seed extract enriched in trigonelline (40.45% trigonelline) by oral gavage (equimolar of 300 mg/kg trigonelline, n=8/group). After 120 minutes treatment, the liver was harvested and flash frozen in liquid nitrogen. NAD+ was measured in liver using an enzymatic method adapted from Dall, M., et al., Mol Cell Endocrinol, 2018. 473:p. 245-256.

[6] = test system: C. elegans; settings: 1 mM
Description: C. elegans mobility test was performed using the Movement Tracker software (Mouchiroud, L. et al. Curr Protoc Neurosci 77, 8.37.1-8.37.21 (2016)). The experiments were repeated at least twice. Trigonelline treatment and experimental measurements were started at Day 1 of wild type N2 worm adulthood, in a regimen of chronic exposure till experiments termination.

[7] = test system: C. elegans; settings: 1 mM, chronic exposure from Day 1 of adulthood, wild type N2
Description: Worm lifespan tests were performed using about 100 animals per condition and scored manually every other day. Trigonelline treatment and experimental measurements were started at Day 1 of wild type N2 worm adulthood, in a regimen of chronic exposure till experiments termination.

[8] = test system: C. elegans; settings: 1 mM, day 8 and day 11 old worms
Text: 45 to 60 worms per condition were manually scored for mobility after poking. Worms that were unable to respond to any repeated stimulation were scored as dead. […] Trigonelline treatment and experimental measurements were started at Day 1 of wild type N2 worm adulthood, in a regimen of chronic exposure til experiments termination.

C[n+]1cccc(C(=O)[O-])c1 [trigonelline, 1-methylpyridin-1-ium-3-carboxylate]
Mitochondrial (nduo-1) relative to nuclear (act-1) DNA ratio compared to control [1]: higher than in the control group
Myofibrillar structure (GFP-tagged myosin morphology) compared to age matched control [2]: improved more organized myofibrillar structure
NAD+ levels relative to control ([3]; 500 μM, human myotubes from 2 donors, LC-MS): enhancement of NAD+ levels

C[n+]1cccc(C(=O)[O-])c1 [chemically synthesized trigonelline, trigonelline monohydrate]
NAD+ content compared to the control [4]: significant increase in NAD+ content
NAD+ content in the liver compared to the control [5]: significant increase in NAD+ content in the liver

C[n+]1cccc(C(=O)O)c1 [trigonelline chloride]
Distance travelled during spontaneous mobility assay compared to control ([6]; advanced aging phase): significantly increased
Mean speed during spontaneous mobility assay compared to the control ([6]; from day 1 adulthood): increased the mean speed
Increase of lifespan (survival curve) [7]: 21%
Stimulated mobility score (percentage of worms responsive to a physical stimulus) [8]: more responsive to a physical stimulus

C[n+]1cccc(C(=O)[O-])c1 [trigonelline (13C-carbonyl, C2H3), reference compound]
[13C]-isotopic enrichment of NAD+ (% of 13C-enrichment) ([3]; 500 μM labelled trigonelline, compared to NAD+ in baseline conditions, corrected for natural abundance): 45%
